The text below walks through data of publication PMC5608406, “In vivo activation of latent HIV with a synthetic bryostatin analog effects both latent cell "kick" and "kill" in strategy for virus eradication” (PLoS Pathogens, 2017).

SMILES strings stand for the structures.

For assay [1], the system named is HIV strain NL-HA. It counts as in vivo, humanized BLT mice. The settings on record: IP injection while maintaining ART, overnight incubation.
For assay [2], the system named is U1 cells. Put plainly: Activation of HIV from latency in U1 cell line (p24 ELISA). It counts as cell-based. The settings on record: 48h. As to the method:
U1 cells (tested negative for bacteria, mold, yeast, and mycoplasma) were obtained through the AIDS Reagent Program, Division of AIDS, NIAID, NIH from Dr. Thomas Folks. Cells and compound were seeded in a final 200 μL volume of RF10 media at a cell density of 20,000 cells/well in v-bottomed 96 well plates and incubated at 37°C for 48 hours. After incubation, cells were pelleted and supernatant harvested then diluted in a 2% Triton-x-100/phosphate buffered saline solution. The concentration of HIV p24 protein in the culture supernatant was quantified using the HIV p24 antigen enzyme linked immunosorbent assay (ELISA) kit (Beckman Coulter) according to the manufacturer’s instructions.
(In general: An ELISA detects its analyte on a solid surface through an enzyme-linked reagent.)

The test system of assay [3] is primary CD4+ T cells. Put plainly: Induction of CD69 expression in primary CD4+ T cells. It counts as cell-based, human. To be noted: 24h. As to the method: Primary human cells from HIV seronegative individuals were cultured in “RF10 medium” consisting of RPMI 1640 medium supplemented with 10% fetal bovine serum (FBS, Omega Scientific), 100 U/mL of penicillin, and 100 μg/mL of streptomycin (Invitrogen). PBMCs were isolated using Ficoll-Paque Plus separation (GE Healthcare). Primary CD4+ T cells were separated from PBMCs by negative immunomagnetic selection using the CD4+ T cell Isolation Kit (Miltenyi Biotec) according to the manufacturer’s instructions. Cells were then exposed to compound for 24 hours before staining and flow cytometric analysis of CD69 levels. Compound incubations were performed by seeding 10^5 cells/well in 100 μL of RF10 media containing the appropriate concentration of compound in wells of a v-bottomed 96-well plate. Bryostatin 1 (Tocris bioscience) and Prostratin (LC Laboratories) were obtained commercially, and bryologs or prostratin analogs were synthesized as previously described.
For human PBMC CD69 induction experiments, cells were stained with CD69-ECD (Beckman Coulter 6607110). During staining, cells were incubated at 4 °C for 20 minutes, washed with 2% FBS in PBS, and then resuspended in 2% paraformaldehyde. Stained samples were stored at 4 °C.
Flow cytometry samples were analyzed using a Cytomics FC 500 (Beckman Coulter) or a LSR Fortessa (BD Biosciences) flow cytometer. Data were analyzed using FlowJo (v7) software.

Assay [4] has as its system J-Lat 10.6 cell line. Further details: method as in PMID 22914190. To be noted: cited from earlier work.
For assay [5], the target named is T1, PKC alpha (Homo sapiens, UniProt P17252).
T1 construct: purchased Invitrogen
Put plainly: PKC binding assay, competition with 3H-PDBu. As to the method: (§1) This entails a glass-fiber filtration method to determine bound radioligand.
(§2) To a polypropylene vial was added Tris-HCl (pH 7.4, 1 M, 1 mL), KCl (1 M, 2 mL), CaCl2 (0.1 M, 30 μL), and bovine serum albumin (40 mg, from Sigma). This mixture was diluted to 20 mL with deionized H2O, and mixed gently. The buffer was stored on ice until use. The final concentration of these constituents are shown in S2 Table.
(§3) For every 2 assays, 3.5 mg phosphatidylserine (Avanti Polar Lipids, porcine, obtained as a solution in CHCl3) was isolated by removing chloroform under a stream of nitrogen followed by reduced pressure. The solid PS was suspended as vesicles in binding assay buffer (3.5 mL) by sonicating (Branson Sonifier 250, power = 2, 50% duty cycle) six times for 30 s with a 30 s rest between sonications. The resulting cloudy mixture (1 mg/mL PS) was stored on ice until use.
(§4) Assay Protein Kinase C (PKC) was prepared by dissolving a 4 μg aliquot of the indicated recombinant human PKC isoform (Invitrogen) into 11.6 mL of binding assay buffer. The KD values for all 7 isoforms were determined experimentally. The diluted PKC was stored on ice for immediate use. This amount is sufficient for 2 assays with room for error.
(§5) This 500 nM stock solution was further diluted in DMSO to 30 nM for use in assays. The 500 nM and 30 nM stock solutions were stored frozen in DMSO at −20°C until use. […] Seven analog concentrations were used to define the inhibition curve.
(§6) The resulting solution was vortexed to mix and stored on ice.
(§7) Triplicate data points were obtained for each analog concentration. For each data point, 280 μL of Master Mix Solution and test compound at the given concentration (20 μL) were added to a polypropylene tube. […] Counts per minute (cpm) were averaged for each triplicate dilution.

Assay [6] has as its target T2, PKC eta (Homo sapiens, UniProt P24723).
T2 construct: purchased Invitrogen
Put plainly: PKC binding assay, competition with 3H-PDBu. As to the method:
as §1, §2, §3, §4, §5, §6, §7

For assay [7], the target named is T3, PKC delta (Homo sapiens, UniProt Q05655).
T3 construct: purchased Invitrogen
Put plainly: PKC binding assay, competition with 3H-PDBu. As to the method:
as §1, §2, §3, §4, §5, §6, §7

For assay [8], the target named is T4, PKC theta (Homo sapiens, UniProt Q04759).
T4 construct: purchased Invitrogen
Put plainly: PKC binding assay, competition with 3H-PDBu. As to the method: as §1, §2, §3, §4, §5, §6, §7

Assay [9] concerns the target T5, PKC gamma (Homo sapiens, UniProt P05129).
T5 construct: purchased Invitrogen
Put plainly: PKC binding assay, competition with 3H-PDBu. As to the method: as §1, §2, §3, §4, §5, §6, §7

Assay [10] has as its target T6, PKC epsilon (Homo sapiens, UniProt Q02156).
T6 construct: purchased Invitrogen
T6 sequence (Q02156 1-737): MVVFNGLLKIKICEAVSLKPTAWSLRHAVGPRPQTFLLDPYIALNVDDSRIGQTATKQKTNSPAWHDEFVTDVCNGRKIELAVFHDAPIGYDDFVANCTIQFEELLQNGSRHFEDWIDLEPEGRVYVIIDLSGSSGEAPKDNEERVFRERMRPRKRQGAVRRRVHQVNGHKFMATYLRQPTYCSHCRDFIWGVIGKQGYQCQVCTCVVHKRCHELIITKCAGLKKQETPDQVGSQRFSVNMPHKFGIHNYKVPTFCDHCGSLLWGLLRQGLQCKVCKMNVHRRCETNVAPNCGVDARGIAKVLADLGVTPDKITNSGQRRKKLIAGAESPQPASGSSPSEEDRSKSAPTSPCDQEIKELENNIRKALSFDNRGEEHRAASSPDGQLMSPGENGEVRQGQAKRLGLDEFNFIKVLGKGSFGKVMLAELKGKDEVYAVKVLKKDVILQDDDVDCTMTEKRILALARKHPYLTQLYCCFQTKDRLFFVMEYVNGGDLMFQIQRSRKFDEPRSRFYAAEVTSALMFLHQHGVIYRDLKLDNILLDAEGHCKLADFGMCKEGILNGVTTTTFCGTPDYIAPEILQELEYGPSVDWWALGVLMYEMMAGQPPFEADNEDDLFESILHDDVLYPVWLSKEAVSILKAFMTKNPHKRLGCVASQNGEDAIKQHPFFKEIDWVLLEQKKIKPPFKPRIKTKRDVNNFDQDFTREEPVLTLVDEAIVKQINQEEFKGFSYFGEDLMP
Put plainly: PKC binding assay, competition with 3H-PDBu. As to the method:
as §1, §2, §3, §4, §5, §6, §7

In assay [11] the target is T7, PKC beta I (Homo sapiens, UniProt P05771).
T7 construct: purchased Invitrogen
Put plainly: PKC binding assay, competition with 3H-PDBu. As to the method:
as §1, §2, §3, §4, §5, §6, §7

T7 sequence (P05771 whole entry): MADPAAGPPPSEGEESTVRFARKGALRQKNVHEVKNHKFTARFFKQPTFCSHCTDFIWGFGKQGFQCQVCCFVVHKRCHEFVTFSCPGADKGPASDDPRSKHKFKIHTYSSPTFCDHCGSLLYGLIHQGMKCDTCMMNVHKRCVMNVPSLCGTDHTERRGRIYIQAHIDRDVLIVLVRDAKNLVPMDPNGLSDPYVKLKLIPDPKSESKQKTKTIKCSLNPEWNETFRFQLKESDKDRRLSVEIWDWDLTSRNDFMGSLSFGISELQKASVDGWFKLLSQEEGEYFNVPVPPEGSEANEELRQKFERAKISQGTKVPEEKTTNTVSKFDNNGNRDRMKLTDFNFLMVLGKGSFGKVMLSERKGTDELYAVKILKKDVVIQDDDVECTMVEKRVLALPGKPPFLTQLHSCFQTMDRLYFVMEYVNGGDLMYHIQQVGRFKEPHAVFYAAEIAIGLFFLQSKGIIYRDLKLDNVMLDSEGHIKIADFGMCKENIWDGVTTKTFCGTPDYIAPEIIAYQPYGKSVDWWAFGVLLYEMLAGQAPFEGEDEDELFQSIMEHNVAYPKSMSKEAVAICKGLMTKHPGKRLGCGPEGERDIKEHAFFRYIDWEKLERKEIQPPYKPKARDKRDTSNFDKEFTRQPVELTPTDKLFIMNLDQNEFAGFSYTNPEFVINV
T2 sequence (P24723 whole entry): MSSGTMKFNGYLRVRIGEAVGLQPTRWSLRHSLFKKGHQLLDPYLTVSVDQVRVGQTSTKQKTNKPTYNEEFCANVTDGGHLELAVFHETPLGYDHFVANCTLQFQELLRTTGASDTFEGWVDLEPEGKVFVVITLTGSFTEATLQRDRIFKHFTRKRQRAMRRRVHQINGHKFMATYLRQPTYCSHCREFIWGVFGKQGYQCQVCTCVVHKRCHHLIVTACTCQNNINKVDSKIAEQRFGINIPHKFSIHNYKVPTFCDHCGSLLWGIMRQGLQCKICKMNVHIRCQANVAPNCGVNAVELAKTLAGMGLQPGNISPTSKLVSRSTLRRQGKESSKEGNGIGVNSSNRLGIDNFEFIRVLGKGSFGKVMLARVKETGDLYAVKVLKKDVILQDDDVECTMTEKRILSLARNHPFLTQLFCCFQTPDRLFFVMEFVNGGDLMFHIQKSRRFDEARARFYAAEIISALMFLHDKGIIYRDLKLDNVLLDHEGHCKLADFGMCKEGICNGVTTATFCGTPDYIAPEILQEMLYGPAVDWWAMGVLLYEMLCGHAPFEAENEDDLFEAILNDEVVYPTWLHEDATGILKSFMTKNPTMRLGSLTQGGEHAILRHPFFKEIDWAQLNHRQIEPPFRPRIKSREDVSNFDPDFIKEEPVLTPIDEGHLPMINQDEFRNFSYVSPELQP
T4 sequence (Q04759 whole entry): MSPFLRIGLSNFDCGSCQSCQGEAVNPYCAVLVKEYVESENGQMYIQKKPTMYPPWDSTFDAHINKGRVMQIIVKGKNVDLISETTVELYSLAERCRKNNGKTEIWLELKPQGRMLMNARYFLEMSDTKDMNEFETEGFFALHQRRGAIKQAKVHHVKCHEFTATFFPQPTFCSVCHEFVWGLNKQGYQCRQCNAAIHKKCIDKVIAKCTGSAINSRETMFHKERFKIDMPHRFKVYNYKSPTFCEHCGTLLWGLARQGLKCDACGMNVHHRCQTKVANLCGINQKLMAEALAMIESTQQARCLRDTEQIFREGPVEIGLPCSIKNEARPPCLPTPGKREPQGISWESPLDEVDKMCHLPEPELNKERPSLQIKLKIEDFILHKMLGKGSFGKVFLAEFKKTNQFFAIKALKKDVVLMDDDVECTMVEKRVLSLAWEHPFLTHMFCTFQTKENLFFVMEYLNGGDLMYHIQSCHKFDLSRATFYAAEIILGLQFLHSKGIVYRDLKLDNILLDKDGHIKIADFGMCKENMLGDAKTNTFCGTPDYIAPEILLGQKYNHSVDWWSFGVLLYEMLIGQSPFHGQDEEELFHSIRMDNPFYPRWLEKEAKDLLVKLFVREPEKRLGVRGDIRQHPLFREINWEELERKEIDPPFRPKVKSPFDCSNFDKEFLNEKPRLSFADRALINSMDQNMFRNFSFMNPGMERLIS
T3 sequence (Q05655 whole entry): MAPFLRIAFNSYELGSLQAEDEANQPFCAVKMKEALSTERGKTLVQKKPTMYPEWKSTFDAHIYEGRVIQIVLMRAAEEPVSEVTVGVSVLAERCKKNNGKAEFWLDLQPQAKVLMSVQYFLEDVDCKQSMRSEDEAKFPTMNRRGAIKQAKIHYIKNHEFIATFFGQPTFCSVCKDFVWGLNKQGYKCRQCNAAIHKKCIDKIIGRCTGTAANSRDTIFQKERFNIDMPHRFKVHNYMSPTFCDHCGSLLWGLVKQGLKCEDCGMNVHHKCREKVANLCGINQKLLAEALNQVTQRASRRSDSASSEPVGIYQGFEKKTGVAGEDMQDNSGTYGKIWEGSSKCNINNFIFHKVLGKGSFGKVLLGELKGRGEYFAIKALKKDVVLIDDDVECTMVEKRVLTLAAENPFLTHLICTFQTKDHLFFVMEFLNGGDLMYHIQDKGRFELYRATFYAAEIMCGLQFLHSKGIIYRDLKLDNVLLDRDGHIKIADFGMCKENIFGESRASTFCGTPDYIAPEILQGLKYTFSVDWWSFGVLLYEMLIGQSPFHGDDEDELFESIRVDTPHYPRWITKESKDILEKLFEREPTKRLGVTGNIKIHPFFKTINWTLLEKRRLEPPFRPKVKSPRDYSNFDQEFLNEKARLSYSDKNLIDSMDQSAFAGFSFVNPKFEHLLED

In general, Ki refers to the dissociation constant of the complex between target and ligand, obtained from inhibition or displacement. Regarding `C=C1C[C@H]2C[C@]3(O)O[C@H](C[C@@H](O)CC(=O)O[C@@H](CO)C[C@@H]4C/C(=C\C(=O)OC)[C@H](OC(=O)CCCCCCC)[C@@](O)(O4)C(C)(C)/C=C/[C@@H](C1)O2)C[C@H](OC(C)=O)C3(C)C` [SUW133], the “percentage of HA+ (HIV-expressing) cells” value in assay [1] is reported as “induced significant numbers of latently-infected cells to express viral proteins”. Further, the “induction of latent virus (HIV p24 in supernatant)” value in [2] is “induced significant levels of latent virus”. For the same molecule, the CD69 expression result in assay [3] was “upregulates expression”. The “induction of HIV from latency” value in assay [4] is given as “effectively induced HIV from latency”. Moreover, the Ki worked out at 1.8 nM in assay [5]; 6.4 nM in assay [6]; 2 nM in [7]; 2 nM in assay [8]; 5.6 nM in [9]; 5.8 nM in assay [10]. The molecule further gave a Ki in [11] of 6.3 nM.
